Measured values from the supplement of paper PMC11208160.
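Further: IS621 bridge recombinase in Escherichia coli cells against a fixed T5 target plasmid.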

Assay: recombinant UMI read abundance after kanamycin selection (control-corrected) (log10(CPM+1)); higher = more efficient recombination; extreme values may be limits of the assay; sequences stand for … in AGTGCAGAGAAAATCGGCCAGTTTTCTCTGCCTGCAGTCCGCATGCCGTGGGACCCCTTGGGTTCTAACCTGTTGCCTAGATTTATGCAGCGGACTGCCTTTCTCCCAAAGTGATAAACCGG…AGGTTGGTTTCACT; site = the 11-nt donor
In short: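 After plating on IPTG (0.07 mM) plus kanamycin, or unselected, in two replicates, recombinant UMIs were PCR-amplified across the donor–target junction and sequenced. The cells were Escherichia coli co-electroporated with a UMI-tagged donor and donor-binding-loop pair library and a target plasmid with a fixed target and T7-inducible IS621 bridge recombinase. Values are log10(CPM+1), with CPM averaged over replicates and scaled by control-derived factors.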
With “AGGAAGACATGGACCGGTTTTCCCGGTAATCCGTATTTGCT (site AGGAAGACTTG)” the “recombinant UMI read abundance (log10)” value was 1.46.
With “AGGAAGACATGGACCGGTTTTCCCGGTAATCCGTATTTGGA (site AGGAAGACTTA)” the “recombinant UMI read abundance (log10)” value was 1.71.
In the case of “AGGAAGACATGGACCGGTTTTCCCGGTAATCCGTATTTGGA (site AGGAAGACTTC)”, the “recombinant UMI read abundance (log10)” value is reported as 2.32.
For “AGGAAGACATGGACCGGTTTTCCCGGTAATCCGTATTTGGA (site AGGAAGACTTG)”, the “recombinant UMI read abundance (log10)” value was 1.04.
With “AGGAAGACATGGACCGGTTTTCCCGGTAATCCGTATTTGGA (site AGGAAGACTTT)” the “recombinant UMI read abundance (log10)” value was 1.63.
With “AGGAAGACATGGACCGGTTTTCCCGGTAATCCGTATTTGTG (site AGGAAGACTCA)” the “recombinant UMI read abundance (log10)” value was 2.35.
With “AGGAAGACATGGACCGGTTTTCCCGGTAATCCGTATTTGTG (site AGGAAGACTTG)” the “recombinant UMI read abundance (log10)” value was 0.492.
With “AGGAAGCCATGGACCGGTTTTCCCGGTAATCCGTATTTGAA (site AGGAAGACTTG)” the “recombinant UMI read abundance (log10)” value was 0.
For “AGGAAGCCATGGACCGGTTTTCCCGGTAATCCGTATTTGAA (site AGGAAGCCTTT)”, the “recombinant UMI read abundance (log10)” value was 0.308.
With “AGGAAGCCATGGACCGGTTTTCCCGGTAATCCGTATTTGCA (site AGGAAGACTTG)” the “recombinant UMI read abundance (log10)” value was 0.
With “AGGAAGCCATGGACCGGTTTTCCCGGTAATCCGTATTTGCA (site AGGAAGCCTTG)” the “recombinant UMI read abundance (log10)” value was 0.
For “AGGAAGCCATGGACCGGTTTTCCCGGTAATCCGTATTTGCA (site AGGAAGGCTTG)”, the “recombinant UMI read abundance (log10)” value was 0.
With “AGGAAGCCATGGACCGGTTTTCCCGGTAATCCGTATTTGCA (site AGGAAGTCTTG)” the “recombinant UMI read abundance (log10)” value was 0.
For “AGGAAGTCATGGACCGGTTTTCCCGGTAATCCGTATTTGCG (site AGGAAGACTTG)”, the “recombinant UMI read abundance (log10)” value was 0.
With “AGGAAGTCATGGACCGGTTTTCCCGGTAATCCGTATTTGCG (site AGGAAGTCTCG)” the “recombinant UMI read abundance (log10)” value was 3.16.
For “AGGAAGTCATGGACCGGTTTTCCCGGTAATCCGTATTTGTA (site AGGAAGACTTG)”, the “recombinant UMI read abundance (log10)” value was 0.
With “AGGAAGTCATGGACCGGTTTTCCCGGTAATCCGTATTTGTA (site AGGAAGTCTTA)” the “recombinant UMI read abundance (log10)” value was 2.97.
In the case of “AGGAATACATGGACCGGTTTTCCCGGTAATCCGTATTTGAC (site AGGAATACTGT)”, the “recombinant UMI read abundance (log10)” value is reported as 1.74.
With “AGGAATACATGGACCGGTTTTCCCGGTAATCCGTATTTGAC (site AGGACTACTGT)” the “recombinant UMI read abundance (log10)” value was 0.624.
With “AGGAATACATGGACCGGTTTTCCCGGTAATCCGTATTTGAC (site AGGAGTACTGT)” the “recombinant UMI read abundance (log10)” value was 0.
For “AGGAATACATGGACCGGTTTTCCCGGTAATCCGTATTTGAC (site AGGATTACTGT)”, the “recombinant UMI read abundance (log10)” value was 0.
With “AGGAATACATGGACCGGTTTTCCCGGTAATCCGTATTTGGC (site AGGAATACTGC)” the “recombinant UMI read abundance (log10)” value was 2.59.
With “AGGAATCCATGGACCGGTTTTCCCGGTAATCCGTATTTGCT (site AGGAATCCTAG)” the “recombinant UMI read abundance (log10)” value was 0.
In the case of “AGGAATCCATGGACCGGTTTTCCCGGTAATCCGTATTTGCT (site CGGAATCCTAA)”, the “recombinant UMI read abundance (log10)” value is reported as 0.0057.
In the case of “AGGAATCCATGGACCGGTTTTCCCGGTAATCCGTATTTGTT (site AGGAATCCTAA)”, the “recombinant UMI read abundance (log10)” value is reported as 0.74.
In the case of “AGGAATCCATGGACCGGTTTTCCCGGTAATCCGTATTTGTT (site CGGAATCCTAA)”, the “recombinant UMI read abundance (log10)” value is reported as 0.0029.
In the case of “AGGAATCCATGGACCGGTTTTCCCGGTAATCCGTATTTGTT (site GGGAATCCTAA)”, the “recombinant UMI read abundance (log10)” value is reported as 0.
For “AGGAATCCATGGACCGGTTTTCCCGGTAATCCGTATTTGTT (site TGGAATCCTAA)”, the “recombinant UMI read abundance (log10)” value was 0.
With “AGGACCACATGGACCGGTTTTCCCGGTAATCCGTATTTGAC (site AGGACAACTGT)” the “recombinant UMI read abundance (log10)” value was 0.0127.
In the case of “AGGACCACATGGACCGGTTTTCCCGGTAATCCGTATTTGAC (site AGGACCACTGT)”, the “recombinant UMI read abundance (log10)” value is reported as 2.79.
With “AGGACCACATGGACCGGTTTTCCCGGTAATCCGTATTTGAC (site AGGACGACTGT)” the “recombinant UMI read abundance (log10)” value was 0.
For “AGGACCACATGGACCGGTTTTCCCGGTAATCCGTATTTGAC (site AGGACTACTGT)”, the “recombinant UMI read abundance (log10)” value was 0.
With “AGGATCCCATGGACCGGTTTTCCCGGTAATCCGTATTTGTG (site AGGATCCCTCA)” the “recombinant UMI read abundance (log10)” value was 0.753.
In the case of “AGGATCCCATGGACCGGTTTTCCCGGTAATCCGTATTTGTG (site AGGCTCCCTCA)”, the “recombinant UMI read abundance (log10)” value is reported as 0.00372.
For “AGGATCCCATGGACCGGTTTTCCCGGTAATCCGTATTTGTG (site AGGGTCCCTCA)”, the “recombinant UMI read abundance (log10)” value was 0.00264.
For “AGGATCCCATGGACCGGTTTTCCCGGTAATCCGTATTTGTG (site AGGTTCCCTCA)”, the “recombinant UMI read abundance (log10)” value was 0.051.
With “AGGATGACATGGACCGGTTTTCCCGGTAATCCGTATTTGCA (site AGGAAGACTTG)” the “recombinant UMI read abundance (log10)” value was 2.34.
With “AGGATGACATGGACCGGTTTTCCCGGTAATCCGTATTTGCA (site AGGACGACTTG)” the “recombinant UMI read abundance (log10)” value was 1.16.
With “AGGATGACATGGACCGGTTTTCCCGGTAATCCGTATTTGCA (site AGGAGGACTTG)” the “recombinant UMI read abundance (log10)” value was 1.19.
In the case of “AGGATGACATGGACCGGTTTTCCCGGTAATCCGTATTTGCA (site AGGATGACTTG)”, the “recombinant UMI read abundance (log10)” value is reported as 2.76.
For “AGGATGCCATGGACCGGTTTTCCCGGTAATCCGTATTTGCT (site AGGATGCCTAG)”, the “recombinant UMI read abundance (log10)” value was 0.721.
For “AGGATTACATGGACCGGTTTTCCCGGTAATCCGTATTTGAC (site AGGAATACTGT)”, the “recombinant UMI read abundance (log10)” value was 0.
In the case of “AGGATTACATGGACCGGTTTTCCCGGTAATCCGTATTTGAC (site AGGACTACTGT)”, the “recombinant UMI read abundance (log10)” value is reported as 0.662.
With “AGGATTACATGGACCGGTTTTCCCGGTAATCCGTATTTGAC (site AGGAGTACTGT)” the “recombinant UMI read abundance (log10)” value was 0.
In the case of “AGGATTACATGGACCGGTTTTCCCGGTAATCCGTATTTGAC (site AGGATTACTGT)”, the “recombinant UMI read abundance (log10)” value is reported as 1.4.
For “AGGCAGACATGGACCGGTTTTCCCGGTAATCCGTATTTGGA (site AGGAAGACTTG)”, the “recombinant UMI read abundance (log10)” value was 0.
In the case of “AGGCAGACATGGACCGGTTTTCCCGGTAATCCGTATTTGGA (site AGGCAGACTTC)”, the “recombinant UMI read abundance (log10)” value is reported as 1.21.
With “AGGCGCGCATGGACCGGTTTTCCCGGTAATCCGTATTTGGA (site AGGCGCGCTTC)” the “recombinant UMI read abundance (log10)” value was 0.849.
In the case of “AGGCTGTCATGGACCGGTTTTCCCGGTAATCCGTATTTGTT (site AGGCTGTCTAA)”, the “recombinant UMI read abundance (log10)” value is reported as 1.64.
In the case of “AGGGACACATGGACCGGTTTTCCCGGTAATCCGTATTTGGC (site AGGGACACTGC)”, the “recombinant UMI read abundance (log10)” value is reported as 2.93.
In the case of “AGGGAGTCATGGACCGGTTTTCCCGGTAATCCGTATTTGCA (site AGGAAGACTTG)”, the “recombinant UMI read abundance (log10)” value is reported as 0.426.
In the case of “AGGGAGTCATGGACCGGTTTTCCCGGTAATCCGTATTTGCA (site AGGGAGTCTTG)”, the “recombinant UMI read abundance (log10)” value is reported as 2.79.
In the case of “AGGGAGTCATGGACCGGTTTTCCCGGTAATCCGTATTTGCC (site AGGGAGTCTGG)”, the “recombinant UMI read abundance (log10)” value is reported as 2.15.
With “AGGGAGTCATGGACCGGTTTTCCCGGTAATCCGTATTTGCC (site CGGGAGTCTGG)” the “recombinant UMI read abundance (log10)” value was 0.995.
For “AGGGAGTCATGGACCGGTTTTCCCGGTAATCCGTATTTGCC (site GGGGAGTCTGG)”, the “recombinant UMI read abundance (log10)” value was 0.
For “AGGGAGTCATGGACCGGTTTTCCCGGTAATCCGTATTTGCC (site TGGGAGTCTGG)”, the “recombinant UMI read abundance (log10)” value was 0.994.
In the case of “AGGGCACCATGGACCGGTTTTCCCGGTAATCCGTATTTGCA (site AGGGCACCTTG)”, the “recombinant UMI read abundance (log10)” value is reported as 0.655.
With “AGGGCACCATGGACCGGTTTTCCCGGTAATCCGTATTTGCA (site CGGGCACCTTG)” the “recombinant UMI read abundance (log10)” value was 0.
In the case of “AGGGCACCATGGACCGGTTTTCCCGGTAATCCGTATTTGCA (site GGGGCACCTTG)”, the “recombinant UMI read abundance (log10)” value is reported as 0.
For “AGGGCACCATGGACCGGTTTTCCCGGTAATCCGTATTTGCA (site TGGGCACCTTG)”, the “recombinant UMI read abundance (log10)” value was 0.
With “AGGGCCTCATGGACCGGTTTTCCCGGTAATCCGTATTTGCT (site AGGGCCTCTAG)” the “recombinant UMI read abundance (log10)” value was 2.95.
In the case of “AGGGGCGCATGGACCGGTTTTCCCGGTAATCCGTATTTGCC (site AGGGGCGCTGG)”, the “recombinant UMI read abundance (log10)” value is reported as 3.25.
In the case of “AGGGGTCCATGGACCGGTTTTCCCGGTAATCCGTATTTGCT (site AGGGGTCCTAG)”, the “recombinant UMI read abundance (log10)” value is reported as 0.704.
For “AGGGTCACATGGACCGGTTTTCCCGGTAATCCGTATTTGAG (site AGGGTCACTCT)”, the “recombinant UMI read abundance (log10)” value was 1.39.
With “AGGGTCCCATGGACCGGTTTTCCCGGTAATCCGTATTTGTG (site AGGATCCCTCA)” the “recombinant UMI read abundance (log10)” value was 0.239.
For “AGGGTCCCATGGACCGGTTTTCCCGGTAATCCGTATTTGTG (site AGGCTCCCTCA)”, the “recombinant UMI read abundance (log10)” value was 0.0118.
For “AGGGTCCCATGGACCGGTTTTCCCGGTAATCCGTATTTGTG (site AGGGTCCCTCA)”, the “recombinant UMI read abundance (log10)” value was 0.304.
In the case of “AGGGTCCCATGGACCGGTTTTCCCGGTAATCCGTATTTGTG (site AGGTTCCCTCA)”, the “recombinant UMI read abundance (log10)” value is reported as 0.0182.
With “AGGGTGCCATGGACCGGTTTTCCCGGTAATCCGTATTTGGG (site AGGGTGCCTCC)” the “recombinant UMI read abundance (log10)” value was 0.0268.
In the case of “AGGGTTCCATGGACCGGTTTTCCCGGTAATCCGTATTTGGT (site AGGGTTCCTAC)”, the “recombinant UMI read abundance (log10)” value is reported as 0.793.
In the case of “AGGGTTTCATGGACCGGTTTTCCCGGTAATCCGTATTTGAA (site AGGGTTTCTTT)”, the “recombinant UMI read abundance (log10)” value is reported as 2.46.
In the case of “AGGTACTCATGGACCGGTTTTCCCGGTAATCCGTATTTGAC (site AGGTACTCTGT)”, the “recombinant UMI read abundance (log10)” value is reported as 3.57.
For “AGGTAGACATGGACCGGTTTTCCCGGTAATCCGTATTTGAA (site AGGAAGACTTG)”, the “recombinant UMI read abundance (log10)” value was 0.
In the case of “AGGTAGACATGGACCGGTTTTCCCGGTAATCCGTATTTGAA (site AGGTAGACTTT)”, the “recombinant UMI read abundance (log10)” value is reported as 1.89.
For “AGGTCAGCATGGACCGGTTTTCCCGGTAATCCGTATTTGGG (site AGATCAGCTCC)”, the “recombinant UMI read abundance (log10)” value was 0.0289.
